According to patent EP4722228A1, “NEW COMPOUND TARGETING MUSK AND USE THEREOF” (The University of Tokyo, priority 2023, dated 2024):
Bridge positions count the residues as written; N and C are the ends. Square brackets hold non-standard residues; d marks the D form. Peptide text beside a SMILES is read from it. I, II: the chains in the order shown. * marks the point of attachment. Palmitoyl = CCCCCCCCCCCCCCCC(=O)*; PEG3 = NCCOCCOCCOCCC(=O)O; Dap = NC[C@H](N)C(=O)O

Tests used:
[1] = tested on: rat PTMG model using anti-acetylcholine receptor monoclonal antibody (mAb35); experiment: Grip Strength Test in rat PTMG model; format: in vivo; conditions: approx. 30 hours after antibody
Protocol: (§1) 5-week-old female rats (n=20, LEW/CrlCrlj, 4 weeks old when carried in, Jackson Laboratory Japan) were divided into four groups (Group A, Group B, Group C, and Group D) using body weight measurement results as indexes. Vehicle was administered to Group A, and the test compound MuSK7-pal dissolved in vehicle was administered intravenously to each of Group B (3 mg/kg), Group C (2 mg/kg), and Group D (1 mg/kg) (Day 0). Two hours after intravenous administration, an anti-nicotinic acetylcholine receptor monoclonal antibody (mAb35, National Hospital Organization Nagasaki Kawatana Medical Center) dissolved in PBS (pH 7.4) as a drug for inducing the pathology of myasthenia gravis was administered intraperitoneally to all animals at 200 µg/rat (Day 0). The vehicle, which was a solvent of the compound, was phosphate-buffered saline (PBS) at pH 7.4 containing 20% hydroxypropyl-β-cyclodextrin and 0.02% polysorbate 80 (the same applies to Example 3(2)).
Approximately 30 hours after antibody administration, the muscle strength of the rats was measured using a mouse grip strength meter (GRIP STRENGTH METER FOR MICE, MODEL MK-380M, Muromachi Kikai Co., Ltd.). Specifically, the rats were left for 15 minutes or longer, and after confirming that they were in a resting state, the forelimbs of the rats were made to grasp the mouse grip strength meter. Next, the bodies of the rats were pulled, and the scale of the grip strength meter at the point when the rats released the wire mesh was read (first measurement). The above procedure was repeated once more (second measurement). When the difference between the first and second measurement values was 20% or less, the average value thereof was used as the measurement value. When the difference was 20% or more, the above procedure was further performed once more (third measurement), and the average value of two measurements with close values among the three measurements was used as the measurement value.
as §1, with “(n=24,” for “(n=20,”, “(0.5” for “(3”, “(0.25” for “(2”, “(0.1” for “(1”, “0).” for “0). The vehicle, which was a solvent of the compound, was phosphate-buffered saline (PBS) at pH 7.4 containing 20% hydroxypropyl-β-cyclodextrin and 0.02% polysorbate 80 (the same applies to Example 3(2)).”
The Grip Strength Test was performed approximately 30 hours after antibody administration. The implementation procedure was the same as that in (1) B above.
(§2) 5-week-old female rats (LEW/CrlCrlj, 4 weeks old when carried in, Jackson Laboratory Japan) were divided into three groups (Group A, Group B, and Group C) using body weight measurement results as indexes. The test compound (tetramer of Ub012 (EAAAK)3) dissolved in vehicle was administered intravenously to Group A (5 mg/kg) (n=5), the test compound (tetramer of Ub012(ΔGG) (EAAAK)3) dissolved in vehicle was administered intravenously to Group B (5 mg/kg) (n=5), and vehicle was administered intravenously to Group C (n=5), respectively (Day 0). Two hours after intravenous administration, an anti-nicotinic acetylcholine receptor monoclonal antibody (mAb35, National Hospital Organization Nagasaki Kawatana Medical Center) dissolved in PBS (pH 7.4) as a drug for inducing the pathology of myasthenia gravis was administered intraperitoneally to all animals at 200 µg/rat (Day 0).
The Grip Strength Test was performed approximately 30 hours after antibody administration. The implementation procedure was the same as that in Example 3(1) B.

[2] = tested on: rat PTMG model using anti-acetylcholine receptor monoclonal antibody (mAb35); experiment: Wire-hang Test (Hanging Wire Test) in rat PTMG model; format: in vivo; conditions: approx. 30 hours after antibody
Protocol: as §1
Approximately 30 hours after antibody administration, the muscle strength of the rats was measured using a lid (made of wire mesh) of a lidded plastic cage (Clean 200-TPX cage; CL-0108-2, CLEA Japan, Inc.). Specifically, the rats were left for 15 minutes or longer, and after confirming that they were in a resting state, they were placed on the cage lid. Next, the cage lid was lightly shaken about three times so that the rats would grasp the cage lid, and the cage lid was turned upside down. The inverted lid was held at a height (about 60 cm from the floor), which was high enough to prevent the rats from getting down easily but low enough not to injure them if they fell. The latency until the rats fell from the cage lid was measured for up to 120 seconds.
5-week-old female rats (n=24, LEW/CrlCrlj, 4 weeks old when carried in, Jackson Laboratory Japan) were divided into four groups (Group A, Group B, Group C, and Group D) using body weight measurement results as indexes. Vehicle was administered to Group A, and the test compound MuSK7-pal dissolved in vehicle was administered intravenously to each of Group B (0.5 mg/kg), Group C (0.25 mg/kg), and Group D (0.1 mg/kg) (Day 0). Two hours after intravenous administration, an anti-nicotinic acetylcholine receptor monoclonal antibody (mAb35, National Hospital Organization Nagasaki Kawatana Medical Center) dissolved in PBS (pH 7.4) as a drug for inducing the pathology of myasthenia gravis was administered intraperitoneally to all animals at 200 µg/rat (Day 0).
The Wire-hang Test was performed approximately 30 hours after antibody administration. The implementation procedure was the same as that in (1) B above.
as §2
The Wire-hang Test was performed approximately 30 hours after antibody administration. The implementation procedure was the same as that in Example 3(1) B.

[3] = 0.1 mg/kg intravenously (Group D, Example 3(2))
[4] = 0.25 mg/kg intravenously (Group C, Example 3(2))
[5] = 0.5 mg/kg intravenously (Group B, Example 3(2))

Compound: CCCCCCCCCCCCCCCC(=O)NCCCC[C@H](NC(=O)[C@H](CNC(=O)CCOCCOCCOCCNC(=O)CNC(=O)[C@@H]1CSCC(=O)N[C@H](Cc2ccc(O)cc2)C(=O)N2CCC[C@H]2C(=O)N[C@@H](CO)C(=O)N[C@@H](Cc2ccc(O)cc2)C(=O)N[C@@H](Cc2c[nH]cn2)C(=O)N[C@@H]([C@@H](C)O)C(=O)N[C@@H](CC(N)=O)C(=O)N[C@@H](C(C)C)C(=O)N[C@@H](C(C)C)C(=O)N[C@@H](C)C(=O)N[C@@H](CO)C(=O)N[C@@H](CC(C)C)C(=O)N[C@@H](CCCCN)C(=O)N[C@@H](CCCNC(=N)N)C(=O)N1)NC(=O)CCOCCOCCOCCNC(=O)CNC(=O)[C@@H]1CSCC(=O)N[C@H](Cc2ccc(O)cc2)C(=O)N2CCC[C@H]2C(=O)N[C@@H](CO)C(=O)N[C@@H](Cc2ccc(O)cc2)C(=O)N[C@@H](Cc2c[nH]cn2)C(=O)N[C@@H]([C@@H](C)O)C(=O)N[C@@H](CC(N)=O)C(=O)N[C@@H](C(C)C)C(=O)N[C@@H](C(C)C)C(=O)N[C@@H](C)C(=O)N[C@@H](CO)C(=O)N[C@@H](CC(C)C)C(=O)N[C@@H](CCCCN)C(=O)N[C@@H](CCCNC(=N)N)C(=O)N1)C(N)=O [MuSK7-pal] (I: {CH2CO}-[dY]PSYHTNVVASLKRCG[PEG3][Dap]K(Palmitoyl)-NH2 / II: {CH2CO}-[dY]PSYHTNVVASLKRCG[PEG3]; amide I:18-II:C; thioether I:N-I:15, II:N-II:15)
- grip strength [1, 3]: 452 g
- grip strength [1, 4]: 476 g
- grip strength [1, 5]: 461 g
- grip strength ([1]; 1 mg/kg intravenously (Group D, Example 3(1))): 577 g
- grip strength ([1]; 2 mg/kg intravenously (Group C, Example 3(1))): 474 g
- grip strength ([1]; 3 mg/kg intravenously (Group B, Example 3(1))): 467 g
- mean latency to fall [2, 3]: 25.3 s
- mean latency to fall [2, 4]: 32.3 s
- mean latency to fall [2, 5]: 11.3 s
- mean latency to fall ([2]; 1 mg/kg intravenously (Group D, Example 3(1)), max 120 seconds): 69.6 s
- mean latency to fall ([2]; 2 mg/kg intravenously (Group C, Example 3(1)), max 120 seconds): 29.2 s
- mean latency to fall ([2]; 3 mg/kg intravenously (Group B, Example 3(1)), max 120 seconds): 17.6 s
